# Experimental data published in patent US8101550B2, “Anthranilic acid diamide derivative with hetero-aromatic and hetero-cyclic substituents” (Bayer Cropscience AG, priority 2006, dated 2012).
# Where two headings read alike, the source gives them in different places.
# Assays:
# [1] = log P determination by HPLC on reverse-phase column (EEC Directive 79/831 Annex V.A8); type: physicochemical
# In short: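 Log P was derived from retention times by linear interpolation between successive unbranched alkan-2-one standards (C3–C16). The standards and samples ran on a C18 reverse-phase column at 43 °C with a 10→95% acetonitrile gradient in 0.1% formic acid (pH 2.7). The method follows EEC Directive 79/831 Annex V.A8.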
# [2] = test system: caterpillars of the armyworm (Spodoptera frugiperda); assay: Spodoptera frugiperda test (cabbage leaves, immersion); type: in vivo; conditions: cabbage leaves immersed
# Procedure: An appropriate preparation of active compound is prepared by mixing 1 part by weight of active compound with the stated amounts of solvent and emulsifier and diluting the concentrate with emulsifier-containing water to the desired concentration.
# Cabbage leaves (Brassica oleracea) are treated by immersion into a preparation of active compound at the desired concentration and, are populated with caterpillars of the armyworm (Spodoptera frugiperda) while the leaves are still wet.
# After the desired time the effect in % is determined. 100% means that all of the caterpillars have been killed; 0% means that no caterpillars have been killed.
# Cabbage leaves (Brassica oleracea) are treated by immersion into a preparation of active compound at the desired concentration and are populated with caterpillars of the armyworm (Spodoptera frugiperda) while the leaves are still wet.
compound,measurement,setting,value
"CNC(=O)c1cc(Cl)cc(C)c1NC(=O)c1cc(Cn2nc(C(F)(F)F)cc2C(F)(F)F)nn1-c1ncccc1Cl [I-1-1, 5-(3,5-Bis-trifluoromethylpyrazol-1-ylmethyl)-2-(3-chloropyridin-2-yl)-2H-pyrazole-3-carboxylic acid 4-chloro-2-methyl-6-methylcarbamoylphenyl amide]",chromatographic logP,[1]; pH 2.7,3.67
same,Kill level after 7 d in %,[2]; 100 g/ha,100%
Cc1cc(Cl)cc(C(=O)NC(C)C)c1NC(=O)c1cc(Cn2nc(C(F)(F)C(F)(F)F)nc2C(F)(F)F)nn1-c1ncccc1Cl [I-1-23],logP,[1]; HPLC on reverse-phase column,4.25
same,Kill level after 7 d in %,[2]; 100 g/ha,100%
CNC(=O)c1cc(Br)cc(C)c1NC(=O)c1cc(Cn2nc(C(F)(F)C(F)(F)F)nc2C(F)(F)C(F)(F)F)nn1-c1ncccc1Cl [I-1-39],logP,[1]; HPLC on reverse-phase column,4.31
same,Kill level after 7 d in %,[2]; 100 g/ha,100%
Cc1cc(Cl)cc(C(=O)NC(C)C)c1NC(=O)c1cc(Cn2nc(C(F)(F)F)cc2C(F)(F)F)nn1-c1ncccc1Cl [I-1-2],logP,[1]; HPLC on reverse-phase column,4.08
same,Kill level after 7 d in %,[2]; 100 g/ha,100%
Cc1cc(Cl)cc(C(=O)NC(C)C)c1NC(=O)c1cc(Cn2ccc(C(F)(F)F)n2)nn1-c1ncccc1Cl [I-1-6],logP,[1]; HPLC on reverse-phase column,3.27
same,Kill level after 7 d in %,[2]; 0.8 g/ha,100%
same,Kill level after 7 d in %,[2]; 100 g/ha,100%
CNC(=O)c1cc(Br)cc(C)c1NC(=O)c1cc(Cn2nc(C(F)(F)F)nc2C(F)(F)F)nn1-c1ncccc1Cl [I-1-36],logP,[1]; HPLC on reverse-phase column,3.52
same,Kill level after 7 d in %,[2]; 100 g/ha,100%
CNC(=O)c1cc(Cl)cc(C)c1NC(=O)c1cc(Cn2ccc(C(F)(F)C(F)(F)F)n2)nn1-c1ncccc1Cl [I-1-19],logP,[1]; HPLC on reverse-phase column,3.29
same,Kill level after 7 d in %,[2]; 100 g/ha,100%
CNC(=O)c1cc(Br)cc(C)c1NC(=O)c1cc(Cn2nc(C(F)(F)C(F)(F)F)cc2C(F)(F)C(F)(F)F)nn1-c1ncccc1Cl [I-1-24],logP,[1]; HPLC on reverse-phase column,4.49
same,Kill level after 7 d in %,[2]; 100 g/ha,100%
CNC(=O)c1cc(Cl)cc(C)c1NC(=O)c1cc(Cn2cc(Br)c(C(F)(F)C(F)(F)F)n2)nn1-c1ncccc1Cl [I-1-34],logP,[1]; HPLC on reverse-phase column,3.80
same,Kill level after 7 d in %,[2]; 100 g/ha,100%
Cc1cc(Cl)cc(C(=O)NC(C)C)c1NC(=O)c1cc(Cn2cccn2)nn1-c1ncccc1Cl [I-1-9],logP,[1]; HPLC on reverse-phase column,2.45
same,Kill level after 7 d in %,[2]; 100 g/ha,100%
Cc1cc(Br)cc(C(=O)NC(C)C)c1NC(=O)c1cc(Cn2nc(C(F)(F)C(F)(F)F)nc2C(F)(F)C(F)(F)F)nn1-c1ncccc1Cl [I-1-37],logP,[1]; HPLC on reverse-phase column,4.73
same,Kill level after 7 d in %,[2]; 100 g/ha,100%
Cc1cc(Cl)cc(C(=O)NC(C)C)c1NC(=O)c1cc(Cn2nc(C(F)(F)C(F)(F)F)c(C(F)(F)F)c2F)nn1-c1ncccc1Cl [I-1-28],logP,[1]; HPLC on reverse-phase column,4.63
same,Kill level after 7 d in %,[2]; 100 g/ha,100%
Cc1cc(Cl)cc(C(=O)NC(C)C)c1NC(=O)c1cc(Cn2nc(C(F)(F)F)nc2C(F)(F)F)nn1-c1ncccc1Cl [I-1-5],logP,[1]; HPLC on reverse-phase column,3.88
same,Kill level after 7 d in %,[2]; 0.8 g/ha,100%
same,Kill level after 7 d in %,[2]; 100 g/ha,100%
CNC(=O)c1cc(Cl)cc(C)c1NC(=O)c1cc(Cn2nc(C(F)(F)C(F)(F)F)nc2C(F)(F)C(F)(F)F)nn1-c1ncccc1Cl [I-1-26],logP,[1]; HPLC on reverse-phase column,4.17
same,Kill level after 7 d in %,[2]; 100 g/ha,100%
CNC(=O)c1cc(Br)cc(C)c1NC(=O)c1cc(Cn2cc(C(F)(F)C(F)(F)F)c(C(F)(F)C(F)(F)F)n2)nn1-c1ncccc1Cl [I-1-25],logP,[1]; HPLC on reverse-phase column,4.39
same,Kill level after 7 d in %,[2]; 100 g/ha,100%
Cc1cc(Cl)cc(C(=O)NC(C)C)c1NC(=O)c1cc(Cn2cc(Cl)c(C(F)(F)C(F)(F)F)n2)nn1-c1ncccc1Cl [I-1-31],logP,[1]; HPLC on reverse-phase column,4.21
same,Kill level after 7 d in %,[2]; 100 g/ha,100%
Cc1cc(Br)cc(C(=O)NC(C)C)c1NC(=O)c1cc(Cn2nc(C(F)(F)F)cc2C(F)(F)F)nn1-c1ncccc1Cl [I-1-20],logP,[1]; HPLC on reverse-phase column,4.16
same,Kill level after 7 d in %,[2]; 100 g/ha,100%
CNC(=O)c1cc(Cl)cc(C)c1NC(=O)c1cc(Cn2nc(C(F)(F)C(F)(F)F)cc2C(F)(F)C(F)(F)F)nn1-c1ncccc1Cl [I-1-27],logP,[1]; HPLC on reverse-phase column,4.45
same,Kill level after 7 d in %,[2]; 20 g/ha,83%
Cc1cc(Cl)cc(C(=O)NCC#N)c1NC(=O)c1cc(Cn2cc(Cl)c(C(F)(F)C(F)(F)F)n2)nn1-c1ncccc1Cl [I-1-32],logP,[1]; HPLC on reverse-phase column,3.70
same,Kill level after 7 d in %,[2]; 100 g/ha,100%
CNC(=O)c1cc(Cl)cc(C)c1NC(=O)c1cc(Cn2nc(C(F)(F)F)cc2C(F)(F)F)nn1-c1ccccc1Cl [I-1-11],logP,[1]; HPLC on reverse-phase column,4.12
same,Kill level after 7 d in %,[2]; 100 g/ha,100%
Cc1cc(Br)cc(C(=O)NCC#N)c1NC(=O)c1cc(Cn2cc(C(F)(F)C(F)(F)F)c(C(F)(F)C(F)(F)F)n2)nn1-c1ncccc1Cl [I-1-33],logP,[1]; HPLC on reverse-phase column,4.28
same,Kill level after 7 d in %,[2]; 100 g/ha,100%
Cc1cc(Cl)cc(C(=O)NC(C)C)c1NC(=O)c1cc(Cn2cc(C#N)cn2)nn1-c1ncccc1Cl [I-1-8],logP,[1]; HPLC on reverse-phase column,2.57
same,Kill level after 7 d in %,[2]; 0.8 g/ha,100%
same,Kill level after 7 d in %,[2]; 100 g/ha,100%
CNC(=O)c1cc(Cl)cc(C)c1NC(=O)c1cc(Cn2nc(C(F)(F)F)nc2C(F)(F)F)nn1-c1ncccc1Cl [I-1-35],logP,[1]; HPLC on reverse-phase column,3.43
same,Kill level after 7 d in %,[2]; 100 g/ha,100%
Cc1cc(Cl)cc(C(=O)NC(C)C)c1NC(=O)c1cc(Cn2cc(F)cn2)nn1-c1ncccc1Cl [I-1-7],logP,[1]; HPLC on reverse-phase column,2.70
same,Kill level after 7 d in %,[2]; 100 g/ha,100%
Cc1cc(Cl)cc(C(=O)NC(C)C)c1NC(=O)c1cc(Cn2cc(C(F)(F)C(F)(F)F)c(C(F)(F)C(F)(F)F)n2)nn1-c1ncccc1Cl [I-1-12],logP,[1]; HPLC on reverse-phase column,4.89
same,Kill level after 7 d in %,[2]; 100 g/ha,100%
Cc1cc(Cl)cc(C(=O)NC(C)C)c1NC(=O)c1cc(Cn2nc(C(F)(F)F)nc2C(F)(F)F)nn1-c1c(Cl)cccc1Cl [I-1-40],logP,[1]; HPLC on reverse-phase column,4.58
same,Kill level after 7 d in %,[2]; 100 g/ha,100%
CNC(=O)c1cc(Cl)cc(C)c1NC(=O)c1cc(Cn2cc(I)c(C(F)(F)C(F)(F)F)n2)nn1-c1ncccc1Cl [I-1-16],logP,[1]; HPLC on reverse-phase column,3.79
same,Kill level after 7 d in %,[2]; 100 g/ha,100%
Cc1cc(Cl)cc(C(=O)NC(C)C)c1NC(=O)c1cc(Cn2ccc(C(F)(F)C(F)(F)F)n2)nn1-c1ncccc1Cl [I-1-18],logP,[1]; HPLC on reverse-phase column,3.75
same,Kill level after 7 d in %,[2]; 100 g/ha,100%
Cc1cc(Cl)cc(C(=O)NC(C)C)c1NC(=O)c1cc(Cn2nc(C(F)(F)F)cc2C(F)(F)F)nn1-c1ccccc1Cl [I-1-10],logP,[1]; HPLC on reverse-phase column,4.70
same,Kill level after 7 d in %,[2]; 100 g/ha,100%
CNC(=O)c1cc(Cl)cc(C)c1NC(=O)c1cc(Cn2cc(Cl)c(C(F)(F)F)n2)nn1-c1ncccc1Cl [I-1-17],logP,[1]; HPLC on reverse-phase column,3.35
same,Kill level after 7 d in %,[2]; 100 g/ha,100%
Cc1cc(Cl)cc(C(=O)NC(C)C)c1NC(=O)c1cc(Cn2nc(C(F)(F)C(F)(F)F)nc2C(F)(F)C(F)(F)F)nn1-c1ncccc1Cl [I-1-29],logP,[1]; HPLC on reverse-phase column,4.64
same,Kill level after 7 d in %,[2]; 100 g/ha,100%
Cc1cc(Cl)cc(C(=O)NC2CCCC2N)c1NC(=O)c1cc(Cn2cc(Cl)c(C(F)(F)C(F)(F)F)n2)nn1-c1ncccc1Cl (stereo not drawn) [I-1-202],logP,[1],2.30
Cc1cc(Br)cc(C(=O)NC2CC2)c1NC(=O)c1cc(Cn2nc(C(F)(F)F)nc2C(F)(F)F)nn1-c1ncccc1Cl [I-1-57],logP,[1]; HPLC on reverse-phase column,3.67
CSCC(C)NC(=O)c1cc(Cl)cc(C)c1NC(=O)c1cc(Cn2cc(Cl)c(C(F)(F)C(F)(F)F)n2)nn1-c1ncccc1Cl (stereo not drawn) [I-1-206],logP,[1],4.41
Cc1cc(Cl)cc(C(=O)NC2CC2)c1NC(=O)c1cc(Cn2nc(C(F)(F)F)cc2C(F)(F)F)nn1-c1ncc(C(F)(F)F)cc1Cl [I-2-12],logP,"[1]; HPLC, reverse-phase column (C 18), 43° C., acidic range pH 2.7",4.52
Cc1cc(Cl)cc(C(=O)NC2CC2CO)c1NC(=O)c1cc(Cn2cc(Cl)c(C(F)(F)C(F)(F)F)n2)nn1-c1ncccc1Cl (stereo not drawn) [I-1-207],logP,[1],3.37
Cc1cc(C#N)cc(C(=O)NCC#N)c1NC(=O)c1cc(Cn2nc(C(F)(F)F)nc2C(F)(F)F)nn1-c1ncccc1Cl [I-1-180],logP,[1],3.11
CNC(=O)c1cc(Cl)cc(Cl)c1NC(=O)c1cc(Cc2cncnc2)nn1-c1ncccc1Cl [I-1-321],logP,[1],1.41
Cc1cc(Cl)cc(C(=O)NC(C)C)c1NC(=O)c1cc(Cn2cncn2)nn1-c1ncccc1Cl [I-1-21],logP,[1]; HPLC on reverse-phase column,2.02
same,Kill level after 7 d in %,[2]; 100 g/ha,100%
NC(=O)c1cc(Cl)cc(Cl)c1NC(=O)c1cc(Cn2cnc(C(F)(F)C(F)(F)F)n2)nn1-c1ncccc1Cl [I-1-336],logP,[1],2.32
CNC(=O)c1cc(Cl)cc(C)c1NC(=O)c1cc(Cn2cc(Cl)c(C(F)(F)C(F)(F)F)n2)nn1-c1ncccc1Cl [I-1-30],logP,[1]; HPLC on reverse-phase column,3.77
same,Kill level after 7 d in %,[2]; 100 g/ha,100%
CC(C)NC(=O)c1cc(Cl)cc(Cl)c1NC(=O)c1cc(Cn2ccc(C(F)(F)F)n2)nn1-c1ncccc1Cl [I-1-314],logP,[1],2.77
